For 15 compounds, TGI results are on record in PubChem BioAssay (NCI).

Broadly, the TGI is the concentration giving total growth inhibition. Low readings indicate more potent growth arrest, high ones less potent growth arrest.

The structures appear in SMILES notation.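 Five compound concentrations were applied to cells in 96-well plates for 48 hours; endpoints were derived by simple linear interpolation of the resulting dose-response curve. The concentration for full growth arrest is given as TGI.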 Bounds are passed on as bounds.

Common to all, as to assay: DTP human tumour cell line panel, 48 h
Assay [1] has as its system 786-0 renal.
The test system of assay [2] is K-562 leukemia.
Assay [3] concerns HCC-2998 colon.
For assay [4], the system named is EKVX NSCLC.
Assay [5] has as its system MDA-MB-435.
Assay [6] relates to U251 CNS.
Assay [7] concerns HCT-116 colon.
Assay [8] concerns OVCAR-8 ovarian.
Assay [9] relates to MALME-3M melanoma.
The test system of assay [10] is MOLT-4 leukemia.

`COc1cccc([C@@H]2CC(=O)c3cc4c(cc3N2)OCO4)c1`: the TGI in [1], in assay [2], in assay [3], in assay [4], in assay [5] and in [6] was more than 100 µM throughout. Besides, the TGI in assay [7] and in [8] was more than 100 µM each time.

With `O=C(CSCC(=O)N/N=C\c1ccccc1F)N/N=C\c1ccccc1F`, the TGI in assay [1], in [9], in [3], in [4], in [5] and in [10] was more than 100 µM in each case. Moreover, the TGI in assay [6], in [7] and in assay [8] was more than 100 µM throughout.

For `CC1(C)CN=CC(C)(OCc2ccccc2)C(=O)NC(C)(C)CN=CC(C)(OCc2ccccc2)C(=O)N1` (stereo not given), the TGI in assay [1], in assay [2], in assay [3], in [4], in assay [5] and in [10] was more than 10 µM each time. In addition, the TGI in assay [6], in assay [7] and in assay [8] was more than 10 µM in each case.

Consider `O=C(/C=C/c1ccccc1)Oc1cccc(Br)c1`, for which the concentration for total growth inhibition (TGI) in [1] was more than 100 µM; in assay [3], more than 100 µM; in [4], more than 100 µM; in [5], more than 100 µM; in [10], 29.8 µM; in [6] it was more than 100 µM. For the same compound, the TGI in assay [7] and in assay [8] was more than 100 µM each time.

`CC(=O)OCC1OC(SC2=NC(=O)/C(=C/c3ccccc3)S2)C(OC(C)=O)C(OC(C)=O)C1OC(C)=O` (stereo not given): the TGI in assay [1] is 30.8 µM; in [9], 70.5 µM; in assay [3], more than 100 µM; in assay [4], 70.4 µM; in [5], 38.8 µM; in assay [10] it was 54.5 µM. Also, the TGI in [6] was 91 µM; in assay [7], more than 100 µM; in [8], 31.7 µM.

For `CN(C)C=NCC(O)c1ccccc1` (stereo not given), the TGI in assay [1], in [2], in [9], in assay [4], in assay [5] and in assay [10] was more than 100 µM each time. Moreover, in assay [7], the TGI is more than 100 µM.

Regarding `O=C1C=C(O)c2c(O)ccc(O)c2C1=O`, the TGI in assay [1], in [2], in assay [9], in assay [3], in [5] and in assay [10] was more than 100 µM in each case. The total growth inhibition concentration (TGI) in assay [6], in assay [7] and in assay [8] was more than 100 µM throughout.

With `O=C(c1ccccc1)c1c(C(F)(F)F)n([O-])c2cc(F)c(F)cc2[n+]1=O`, the TGI in assay [1] came to 1.03 µM; in assay [9], 0.42 µM; in assay [4], 5 µM; in [5], 4.14 µM; in assay [10] it was 1.97 µM; in assay [8], 1.15 µM.

For the compound `COc1cc(S(=O)(=O)Nc2ccc(-c3csc(N4C(=O)C(C)SC4c4ccccc4)n3)cc2)ccc1Cl` (stereo not given), the TGI in assay [1], in assay [2], in [9], in assay [4], in [5] and in assay [10] was more than 100 µM throughout. In addition, the total growth inhibition concentration (TGI) in assay [7] and in [8] was more than 100 µM throughout.

For the compound `CN(C)CC1CCCc2ccccc2C1=O` (stereo not given), the TGI worked out at 2.8 µM in assay [1]; 3.62 µM in assay [9]; 12 µM in assay [3]; 3.4 µM in assay [4]; 2.62 µM in assay [5]; 3.12 µM in assay [6]. The TGI worked out at 3.26 µM in assay [7] and 4.29 µM in [8].

With `N#Cc1ccc2[nH]c3c(c2c1)CC(=O)Nc1ccccc1-3`, the TGI in assay [1], in assay [2], in assay [3], in [4], in assay [5] and in assay [10] was more than 100 µM each time. Also, the TGI in assay [6], in [7] and in [8] was more than 100 µM in each case.

Regarding `COc1cc(C2c3cc(OC)c(OC)c(O)c3C(=O)C3CCC(=O)N32)cc(OC)c1OC` (stereo not given), the total growth inhibition concentration (TGI) in assay [1] was more than 100 µM; in assay [2], more than 100 µM; in [3] it was more than 100 µM; in [4], more than 100 µM; in assay [5] it was 39.5 µM; in assay [10] it was more than 100 µM. In addition, the figures for the TGI in assay [6], in [7] and in assay [8] were more than 100 µM, more than 100 µM and 71.4 µM, respectively.

Consider `CC(=O)c1ccc2c3c1O[C@H]1c4[nH]c5ccccc5c4C[C@@]4(O)[C@@H](C2)N(CC2CC2)CC[C@]314`, for which the TGI came out at 28.3 µM in [1]; 41.3 µM in assay [2]; 36.3 µM in [9]; 45.3 µM in assay [4]; 32.5 µM in [5]; 47.6 µM in [10]. Further, the TGI is 26.1 µM in assay [6], 28.9 µM in [7] and 27.8 µM in assay [8].

Regarding `Cc1ccc2c(=O)cc(Cc3csc4ccccc34)[nH]c2n1`, the concentration for total growth inhibition (TGI) is more than 100 µM in [1]; more than 100 µM in assay [2]; 62.1 µM in assay [9]; more than 100 µM in assay [4]; more than 100 µM in assay [5]; more than 100 µM in assay [10]. Moreover, the TGI in assay [6], in assay [7] and in assay [8] was more than 100 µM throughout.

As to `O=S1(=O)OCCCOS(=O)(=O)C1(Br)Br`, the TGI in assay [1], in [9], in assay [4], in assay [5], in [10] and in [6] was more than 100 µM in each case. For the same compound, the total growth inhibition concentration (TGI) in assay [7] and in [8] was more than 100 µM each time.
